The subject of one data set is Bacillus subtilis. As to the kind of experiment: Marine bacteria growth assay (disc diffusion). It is filed as cell-based. Particulars: 24 h at 25 °C. As for the experimental part: (§1) The ability of selected metabolites to inhibit the growth of bacteria was assessed using five strains of marine bacteria involved in marine surface biofilm formation, namely, B. subtilis, B. mojavensis, B. thuringiensis, P. putita and P. pseudoalcaligenes. Bacterial strains were maintained on Zobel marine agar plates. Sterile filter paper discs (4 mm) (GF/F; GE Healthcare, Little Chalfont, UK) were loaded with 40 μL samples of serial dilutions of each tested metabolite, allowed to dry at room temperature and then placed on agar plates (Zobel marine agar, pH = 7.3), which were seeded with a single strain of bacteria. Plates were incubated for 24 h at 25 °C. Marine bacteria growth inhibition was determined by measuring the zone of inhibition in mm around the filter paper disc. As a positive and negative control, standard discs were loaded with 40 μL of 0.5 M penicillin G (2 to 10 mm diameter) or solvent (40 μL methanol), respectively.

The subject of a further data set is Bacillus mojavensis. As to the kind of experiment: Marine bacteria growth assay (disc diffusion). It is filed as cell-based. Particulars: 24 h at 25 °C. As for the experimental part:
as §1

A further data set deals with Bacillus thuringiensis. As to the kind of experiment: Marine bacteria growth assay (disc diffusion). It is filed as cell-based. Particulars: 24 h at 25 °C. The method, then:
as §1

Another data set relates to Pseudomonas putita. As to the kind of experiment: Marine bacteria growth assay (disc diffusion). The format is cell-based. Particulars: 24 h at 25 °C. As for the experimental part:
as §1

Data set [1] deals with Pseudomonas pseudoalcaligenes. As to the kind of experiment: Marine bacteria growth assay (disc diffusion). It is filed as cell-based. Particulars: 24 h at 25 °C. The method, then: as §1
Data set [2] deals with RTL-W1 cell line. As to the kind of experiment: RTL-W1 crystal violet assay (cell viability). Particulars: for EC50: Oncorhynchus mykiss, RTL-W1, Crystal violet assay, 48 h incubation; for crystal violet assay EC50 (in words): RTL-W1. The format is cell-based, rainbow trout. As for the experimental part: (§2) The RTL-W1 cell line, a non-transformed rainbow trout liver cell line that has already been used in environmental toxicity assays, was established from the normal liver of an adult rainbow trout by proteolytic dissociation of liver fragments. RTL-W1 cells were cultured in 75 cm^2 culture flasks (Orange Scientific, Braine l’Alleud, Belgium) at 20 °C in Leibovitz’s (L-15, Sigma-Aldrich, St. Louis, MO, USA) medium supplemented with 5% fetal bovine serum (FBS) and 1% L-glutamine in CO2-free incubator. For the cytotoxicity assays of the selected secondary metabolites, cells were seeded at 3 × 10^4 cells/well density in a 96-well tissue culture plate (Orange Scientific Braine l’Alleud, Belgium) in 100 μL culture medium/well for 2 days before the assays. Three different cytotoxicity protocols were used: 1) The alamar blue/resazurin fluorometric/colorimetric cell viability assay to assess the metabolic capacity and mitochondrial function; 2) the crystal violet cell viability assay for indirect quantification of cell death; and 3) the neutral red cell proliferation assay for lysosomal activity. Two days after seeding the cells, cultures were incubated with various concentrations of selected secondary metabolites at 20 °C for 48 h before cell viability was assessed. […] For the alamar blue/resazurin fluorometric/colorimetric cell viability assay, 100 μL of 3 μg/100 μL Resazurin sodium salt (Sigma-Aldrich, St. Louis, MO, USA) in incubation medium was added on each well and incubated under sterile conditions at 20 °C for 4 h. For the crystal violet cell viability assay, after 48 h of incubation with each secondary metabolite, the culture medium was aspirated and cells were washed twice with sterile dd. H2O. The final wash was aspirated and 50 μL of 0.5% (w/v) crystal violet staining solution (20% methanol in dd. H2O) was added to each well followed by incubation for 20 min at room temperature on a bench rocker with a frequency of 20 oscillations per minute. The staining solution was then aspirated and the plate was washed four times with sterile dd. H2O and left to air-dry without its lid for 3 h at room temperature. Next, 200 μL of methanol was added to each well, and the plate was incubated with its lid on for 20 min at room temperature on a bench rocker with a frequency of 20 oscillations per minute. For the neutral red cell proliferation assay, after 48 h of incubation with each secondary metabolite, the culture medium was aspirated and cells were washed twice with phosphate-buffered saline (PBS, pH 7.4). Cells were then incubated with 100 μL of a 40 μg/mL neutral red staining solution in culture medium at 20 °C for 4 h followed by two washes with 150 μL of PBS. Then cells were incubated with 100 μL neutral red destain solution (50% ethanol, 49% dd. H2O, 1% glacial acetic acid) for 10 min on a bench rocker with a frequency of 80 oscillations per minute. Absorbance was read at 570 nm for alamar blue/resazurin and crystal violet and at 540 nm for neutral red using a Tecan infinite M200 Pro microplate reader. For each assay and each secondary metabolite, a minimum of four independent dose–response experiments with three replicates each were carried out. Calculations were carried out using detailed formulas (AbCam, Cambridge, UK, and results were analyzed with GraphPad Prism v.6.
(§3) For EC50 or IC50 (the concentration that results in 50% stimulation or inhibition relative to the control) calculations in GraphPad Prism v.6, all data were fitted to the curve according to the following models for normalized response: Y = 100/(1 + 10^((X − LogIC50))) or Y = 100/(1 + 10^((LogEC50 − X))) depending on the trend of the curve.

Another data set has as its system HEK293 cell line. As to the kind of experiment: HEK293 neutral red assay (lysosome activity). The format is cell-based, human. Particulars: for EC50: Homo sapiens, HEK293, Neutral red assay, 48 h incubation; for effect on lysosomal activity (in words): HEK293. The method, then: as §2
HEK293 cells, a human embryotic kidney cell line, were obtained from ATCC (ATCC® CRL-1573™) at passage 37 of the original clone and used at passage 38. Cells were cultured routinely in 75 cm^2 culture flasks (Orange Scientific, Braine l’Alleud, Belgium) at 37 °C (5% CO2) in DMEM cell culture medium (Biosera) supplemented with 10% FBS (Sigma-Aldrich, St. Louis, MO, USA) and 1% L-glutamine. All assay conditions and protocols were identical to those described above for RTL-W1 cells with the exception that incubations were carried out at 37 °C. […]

The test system of data set [3] is RTL-W1 cell line. As to the kind of experiment: RTL-W1 alamar blue/resazurin assay (mitochondria function). The format is cell-based, rainbow trout. Particulars: for EC50: Oncorhynchus mykiss, RTL-W1, Alamar blue/Resazurin assay, 48 h incubation; for effect on general metabolism and mitochondrial activity (in words): RTL-W1. As for the experimental part: as §2, §3

Data set [4] deals with RTL-W1 cell line. As to the kind of experiment: RTL-W1 neutral red assay (lysosome activity). Particulars: Oncorhynchus mykiss, 48 h incubation. It is filed as cell-based, rainbow trout. As for the experimental part: as §2, with “For the neutral red cell proliferation assay, after 48 h of incubation with each secondary metabolite, the culture medium was aspirated and cells were washed twice with phosphate-buffered saline (PBS, pH 7.4). Cells were then incubated with 100 μL of a 40 μg/mL neutral red staining solution in culture medium at 20 °C for 4 h followed by two washes with 150 μL of PBS. Then cells were incubated with 100 μL neutral red destain solution (50% ethanol, 49% dd. H2O, 1% glacial acetic acid) for 10 min on a bench rocker with a frequency of 80 oscillations per minute.” left out, “For each assay and each secondary metabolite, a minimum of four independent dose–response experiments with three replicates each were carried out.” left out, “v.6. […]” for “v.6.”

Another data set has as its system Chaetoceros gracilis. As to the kind of experiment: Chaetoceros gracilis toxicity (phytoplankton growth) assay. It is filed as cell-based. Particulars: for EC50: Chaetoceros neogracilis, 96 h. As for the experimental part:
For phytoplankton growth toxicity assays, the criterion for assay validity was that the cell count of the negative control after 96 h should be ≥2 × 10^5 cells/mL [40].
The centric marine diatom C. gracilis Schütt (strain CCMP1315) was grown photoautotrophically in autoclaved artificial seawater (sea salts; Sigma-Aldrich, St. Louis, MO, USA) (30‰) supplemented with F/2 (half-strength medium f as subsequently modified) in 100 mL medium at 20 °C and with ambient air bubbled in the media. By monitoring cell density, an adjusted culture of >1 × 10^6 cells/mL was used for the toxicity assays. At 96 h, a 0.9 mL aliquot of each treatment was sampled, mixed with 0.1 mL Lugol and cell density was counted. Experiments were assumed valid if cell count in the control after 96 h was […].
as §3

`CC(C)[C@@H]1CC=C[C@H]2[C@H]3[C@](C)(CC[C@]12CBr)[C@@H](Br)CC[C@@]3(C)O` [Bromosphaerol, reference compound]: the “effect on bacterial growth” value (in the data set on Bacillus subtilis; in the data set with Bacillus mojavensis; in the data set on Bacillus thuringiensis; in the data set on Pseudomonas putita; in data set [1]) was “none of these metabolites had any effect” each time. For the same compound, the EC50 in the data set with RTL-W1 cell line [2] was 0.575 µM; with HEK293 cell line, 340 µM; with RTL-W1 cell line [3], over 1000 µM; in the data set with RTL-W1 cell line [4] it was 144 µM; in the data set on Chaetoceros gracilis, 4.34 µM. Also, the “crystal violet assay EC50 (in words)” value with RTL-W1 cell line [2] is given as “sub-micromolar”. Moreover, the “inhibition of C. gracilis growth (in words)” value in the data set on Chaetoceros gracilis was “very potent inhibitor of C. gracilis growth”.
In the case of `CC1=C2CC[C@@](C)(Cl)[C@@H](Br)C[C@]2(C)[C@@H](C)[C@@H](Br)[C@@H]1O` [Compound 9, perforenol], the “effect on bacterial growth” value (in the data set on Bacillus subtilis; in the data set on Bacillus mojavensis; in the data set on Bacillus thuringiensis; with Pseudomonas putita; in data set [1]) was “none of these metabolites had any effect” each time. Moreover, the EC50 in the data set with RTL-W1 cell line [2] was 16 µM; in the data set with HEK293 cell line it was over 1000 µM; with RTL-W1 cell line [3] it was over 1000 µM; in the data set on RTL-W1 cell line [4], over 1000 µM; in the data set with Chaetoceros gracilis, 49.8 µM. Further, the “effect on lysosomal activity (in words)” value in the data set on HEK293 cell line is “not affected”. For the same compound, the “effect on general metabolism and mitochondrial activity (in words)” value with RTL-W1 cell line [3] is “none of the three tested metabolites had an effect”.
With `C=CC(C)(O)CC[C@@H]1C(=C)CC[C@@H](Br)[C@@]1(C)CCC1OC1(C)C` (stereo partly shown) [Compound 18], the “effect on bacterial growth” value (in the data set on Bacillus subtilis; with Bacillus mojavensis; with Bacillus thuringiensis; with Pseudomonas putita; in [1]) was “none of these metabolites had any effect” each time. The EC50 in the data set with RTL-W1 cell line [2] was 0.456 µM; with HEK293 cell line, over 1000 µM; in the data set on RTL-W1 cell line [3], over 1000 µM; in the data set on RTL-W1 cell line [4], 138 µM; in the data set on Chaetoceros gracilis, 10.7 µM. For the same compound, in the data set with RTL-W1 cell line [2], the “crystal violet assay EC50 (in words)” value is recorded as “sub-micromolar”. In the data set with HEK293 cell line, the “effect on lysosomal activity (in words)” value is “not affected”. Also, the “effect on general metabolism and mitochondrial activity (in words)” value in the data set on RTL-W1 cell line [3] is “none of the three tested metabolites had an effect”.
For `C=C(C1CCC(C)(O)C(Br)C1)C1C(Br)C2C(CCC2(C)O)C1(C)C` (stereo not shown) [Compound 19, neorogioldiol], the “effect on bacterial growth” value (in the data set with Bacillus subtilis; with Bacillus mojavensis; in the data set with Bacillus thuringiensis; with Pseudomonas putita; in [1]) was “none of these metabolites had any effect” in each case. Also, the EC50 in the data set on RTL-W1 cell line [2] is 12.8 µM; with HEK293 cell line it was over 1000 µM; in the data set on RTL-W1 cell line [3], over 1000 µM; in the data set on RTL-W1 cell line [4] it was over 1000 µM; in the data set with Chaetoceros gracilis, 352 µM. Besides, in the data set on HEK293 cell line, the “effect on lysosomal activity (in words)” value is listed as “not affected”. Besides, in the data set on RTL-W1 cell line [3], the “effect on general metabolism and mitochondrial activity (in words)” value is recorded as “none of the three tested metabolites had an effect”.
